Laboratory results taken from US6677368B2, “4-aryl substituted indolinones” (Sugen, Inc., priority 2000, dated 2004).

Assays:
FLK-1 = target: T1, FLK-1 (Mus musculus, UniProt P35918); experiment: GST-FLK-1 bioassay (tyrosine kinase activity on poly(glu-tyr)); assay type: biochemical; details: GST-Flk1, poly(glu-tyr) substrate, 0.5 μM ATP
T1 construct: GST-Flklcd purified from sf9 recombinant baculovirus transfomnation (SUGEN, Inc.); host or cells: Sf9 insect cells, recombinant baculovirus
Method: This assay analyzes the tyrosine kinase activity of GST-Flk1 on poly(glu-tyr) peptides.
1. Corning 96-well ELISA plates (Corning Catalog No. 25805-96).
2. poly(glu-tyr) 4:1, lyophilizate (Sigma Catalog No. P0275), 1 mg/ml in sterile PBS.
3. PBS Buffer: for 1 L, mix 0.2 g KH2PO4, 1.15 g Na2HPO4, 0.2 g KCl and 8 g NaCl in approx. 900 ml dH2O. When all reagents have dissolved, adjust the pH to 7.2 with HCl. Bring total volume to 1 L with dH2O.
4. PBST Buffer: to 1 L of PBS Buffer, add 1.0 ml Tween-20.
5. TBB—Blocking Buffer: for 1 L, mix 1.21 g TRIS, 8.77 g NaCl, 1 ml TWEEN-20 in approximately 900 ml dH2O. Adjust pH to 7.2 with HCl. Add 10 g BSA, stir to dissolve. Bring total volume to 1 L with dH2O. Filter to remove particulate matter.
6. 1% BSA in PBS: add 10 g BSA to approx. 990 ml PBS buffer, stir to dissolve. Adjust total volume to 1 L with PBS buffer, filter to remove particulate matter.
8. GST-Flklcd purified from sf9 recombinant baculovirus transfomnation (SUGEN, Inc.).
12. Kinase Dilution Buffer (KDB): mix 10 ml Hepes (pH 7.5), 1 ml 5M NaCl, 40 μL 100 mM sodium orthovanadate and 0.4 ml of 5% BSA in dH2O with 88.56 ml dH2O.
13. NUNC 96-well V bottom polypropylene plates, Applied Scientific Catalog #AS-72092
14. EDTA: mix 14.12 g ethylenediaminetetraacetic acid (EDTA) with approx. 70 ml dH2O. Add 10 N NaOH until EDTA dissolves. Adjust pH to 8.0. Adjust total volume to 100 ml with dH2O.
15. 1° and 2° Antibody Dilution Buffer: mix 10 ml of 5% BSA in PBS buffer with 89.5 ml TBST.
16. Anti-phosphotyrosine rabbit polyclonal antisera (SUGEN, Inc.)
17. Goat anti-rabbit HRP conjugate.
18. ABST solution: To approx. 900 ml dH2O add 19.21 g citric acid and 35.49 g Na2HPO4. Adjust pH to 4.0 with phosphoric acid. Add 2,2′-Azinobis(3-ethyl-benzthiazoline-6-sulfonic acid (ABTS, Sigma, Cat. No. A-1888, hold for approx. ½ hour, filter.
19. 30% Hydrogen Peroxide.
20. ABST/H2O2: add 3 μl of H2O2 to 15 ml of ABST solution.
1. Coat Corning 96-well ELISA plates with 2 μg of polyEY in 100 μl PBS/well, hold at room temperature for 2 hours or at […] overnight. Cover plates to prevent evaporation.
2. Remove unbound liquid from wells by inverting plate. Wash once with TBST. Pat the plate on a paper towel to remove excess liquid.
3. Add 100 μl of 1% BSA in PBS to each well. Incubate, with shaking, for 1 hr. at room temperature.
5. Soak wells with 50 mM HEPES (pH7.5, 150 μl/well).
6. Dilute test compound with dH2O/4% DMSO to 4 times the desired final assay concentration in 96-well polypropylene plates.
7. Add 25 μl diluted test compound to each well of ELISA plate. In control wells, place 25 μl of dH2O/4% DMSO.
8. Dilute GST-Flk1 0.005 μg (5 ng)/well in KDB.
9. Add 50 μl of diluted enzyme to each well.
10. Add 25 μl 0.5 M EDTA to negative control wells.
11. Add 25 μl of 40 mM MnCl2 with 4×ATP (2 μM) to all wells (100 μl final volume, 0.5 μM ATP final concentration in each well).
12. Incubate, with shaking, for 15 minutes at room temperature.
13. Stop reaction by adding 25 μl of 500 mM EDTA to each well.
14. Wash 3× with TBST and pat plate on paper towel to remove excess liquid.
15. Add 100 μl per well anti-phosphotyrosine antisera, 1:10,000 dilution in antibody dilution buffer. Incubate, with shaking, for 90 min. at room temperature.
17. Add 100 μl/well of goat anti-rabbit HRP conjugate (1:6,000 in antibody dilution buffer). Incubate, with shaking, for 90 minutes are room temperature.
19. Add 100 μl room temperature ABST/H2O2 solution to each well.
20. Incubate, with shaking for 15 to 30 minutes at room temperature.
21. If necessary, stop reaction by adding 100 μl of 0.2 M HCl to each well.
22. Read results on Dynatech MR7000 ELISA reader with test filter at 410 nM and reference filter at 630 nM.

FGFR3 = FGFR3 (Homo sapiens, UniProt P22607); experiment: FGFR3 kinase inhibition; assay type: biochemical
Chain of FGFR3 (P22607 23-806, species assumed): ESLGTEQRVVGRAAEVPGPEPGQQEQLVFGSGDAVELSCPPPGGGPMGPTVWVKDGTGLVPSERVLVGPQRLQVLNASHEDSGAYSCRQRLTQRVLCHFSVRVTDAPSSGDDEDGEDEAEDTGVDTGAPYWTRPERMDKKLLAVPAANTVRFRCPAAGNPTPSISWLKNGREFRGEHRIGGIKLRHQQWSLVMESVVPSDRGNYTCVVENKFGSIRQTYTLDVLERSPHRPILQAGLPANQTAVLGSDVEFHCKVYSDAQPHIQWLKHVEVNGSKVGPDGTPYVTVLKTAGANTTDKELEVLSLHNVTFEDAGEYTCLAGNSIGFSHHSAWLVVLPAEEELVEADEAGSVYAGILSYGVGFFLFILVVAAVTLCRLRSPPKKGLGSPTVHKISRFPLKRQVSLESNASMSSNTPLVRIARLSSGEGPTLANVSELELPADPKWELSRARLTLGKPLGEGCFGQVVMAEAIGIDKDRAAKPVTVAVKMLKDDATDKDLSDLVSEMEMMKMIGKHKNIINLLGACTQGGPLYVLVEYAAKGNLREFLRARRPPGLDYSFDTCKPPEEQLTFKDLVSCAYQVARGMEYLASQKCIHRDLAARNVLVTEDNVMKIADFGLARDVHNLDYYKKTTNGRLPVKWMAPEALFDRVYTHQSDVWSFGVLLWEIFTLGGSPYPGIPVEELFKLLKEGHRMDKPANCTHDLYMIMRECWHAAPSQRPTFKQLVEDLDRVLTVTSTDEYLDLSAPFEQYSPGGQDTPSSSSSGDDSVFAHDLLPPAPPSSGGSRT

T1 sequence (P35918 784-1345 limits assumed): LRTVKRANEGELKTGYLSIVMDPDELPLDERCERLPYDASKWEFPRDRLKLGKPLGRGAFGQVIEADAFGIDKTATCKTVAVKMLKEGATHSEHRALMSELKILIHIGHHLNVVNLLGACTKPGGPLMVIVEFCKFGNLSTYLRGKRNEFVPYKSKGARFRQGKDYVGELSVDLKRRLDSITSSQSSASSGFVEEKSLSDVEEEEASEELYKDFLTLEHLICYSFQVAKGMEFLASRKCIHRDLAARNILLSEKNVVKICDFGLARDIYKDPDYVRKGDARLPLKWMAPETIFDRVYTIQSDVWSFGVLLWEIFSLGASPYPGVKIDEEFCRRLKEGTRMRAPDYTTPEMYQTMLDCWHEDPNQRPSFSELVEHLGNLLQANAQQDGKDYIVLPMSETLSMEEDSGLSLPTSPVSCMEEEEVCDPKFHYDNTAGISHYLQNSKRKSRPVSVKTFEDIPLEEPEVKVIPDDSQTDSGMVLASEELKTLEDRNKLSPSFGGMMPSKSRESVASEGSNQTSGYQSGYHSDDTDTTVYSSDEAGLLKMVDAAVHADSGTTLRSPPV

Row | IC50 (FLK-1) | IC50 (FGFR3) | SMILES
1 | 0.009 µM |  | CCN(CC)CCNC(=O)c1c(C)[nH]c(/C=C2\C(=O)Nc3cccc(-c4ccccc4)c32)c1C [Example 3, 2,4-Dimethyl-5-(2-oxo-4-phenyl-1,2-dihydro-indol-3-ylidenemethyl)-1H-pyrrole-3-carboxylic Acid (2-Diethylamino-ethyl)-amide]
2 | 0.074 µM |  | Cc1[nH]c(/C=C2\C(=O)Nc3cccc(-c4ccc(F)cc4)c32)c(C)c1C(=O)N1CCN(C)CC1 [Example 4, 3-[3,5-Dimethyl-4-(4-methyl-piperazine-1-carbonyl)-1H-pyrrol-2-ylmethylene]-4-(4-fluoro-phenyl)-1,3-dihydro-indol-2-one]
3 | 0.021 µM |  | Cc1[nH]c(/C=C2\C(=O)Nc3cccc(-c4ccc(F)cc4)c32)c(C)c1C(=O)NCCN1CCCC1 [Example 6, 5-[4-(4-Fluoro-phenyl)-2-oxo-1,2-dihydro-indol-3-ylidenemethyl]-2,4-dimethyl-1H-pyrrole-3-carboxylic Acid (2-Pyrrolidin-1-yl-ethyl)-amide]
4 | 0.18 µM |  | Cc1cc(C(=O)N2CC[C@H](N(C)C)C2)c(/C=C2\C(=O)Nc3cccc(-c4ccc(F)cc4)c32)[nH]1 [Example 10, 3-[3-((S)-3-Dimethylamino-pyrrolidine-1-carbonyl)-5-methyl-1H-pyrrol-2-ylmethylene]-4-(4-fluoro-phenyl)-1,3-dihydro-indol-2-one]
5 | 0.013 µM | 0.021 µM | CCN(CC)CCNC(=O)c1c(C)[nH]c(/C=C2\C(=O)Nc3cccc(-c4cccc(F)c4)c32)c1C [Example 13, 5-[4-(3-Fluoro-phenyl)-2-oxo-1,2-dihydro-indol-3-ylidenemethyl]-2,4-dimethyl-1H-pyrrole-3-carboxylic Acid (2-Diethylamino-ethyl)-amide]
6 | 0.032 µM | 0.072 µM | Cc1[nH]c(/C=C2\C(=O)Nc3cccc(-c4cccc(F)c4)c32)c(C)c1C(=O)NCCn1ccnn1 [Example 15, 5-[4-(3-Fluoro-phenyl)-2-oxo-1,2-dihydro-indol-3-ylidenemethyl]-2,4-dimethyl-1H-pyrrole-3-carboxylic Acid (2-[1,2,3]Triazol-1-yl-ethyl)-amide]
7 | 0.42 µM | 0.35 µM | CCOC(=O)c1c(C)[nH]c(/C=C2\C(=O)Nc3cccc(-c4cccc(F)c4)c32)c1CCCN1CCN(C)CC1 [Example 18, 5-[4-(3-Fluoro-phenyl)-2-oxo-1,2-dihydro-indol-3-ylidenemethyl]-2-methyl-4-[3-(4-methyl-piperazin-1-yl)-propyl]-1H-pyrrole-3-carboxylic Acid Ethyl Ester]
8 | 0.23 µM | 1.29 µM | Cc1[nH]c(/C=C2\C(=O)Nc3cccc(-c4ccc(Cl)cc4)c32)c(C)c1C(=O)N1CCN(C)CC1 [Example 20, 4-(4-Chloro-phenyl)-3-[3,5-dimethyl-4-(4-methyl-piperazine-1-carbonyl)-1H-pyrrol-2-ylmethylene]-1,3-dihydro-indol-2-one]
9 | 0.016 µM | 0.074 µM | Cc1[nH]c(/C=C2\C(=O)Nc3cccc(-c4ccc(Cl)cc4)c32)c(C)c1C(=O)NCCN1CCCC1 [Example 22, 5-[4-(4-Chloro-phenyl)-2-oxo-1,2-dihydro-indol-3-ylidenemethyl]-2,4-dimethyl-1H-pyrrole-3-carboxylic Acid (2-Pyrrolidin-1-yl-ethyl)-amide]
10 | 0.18 µM | 0.34 µM | Cc1cc(C(=O)N2CC[C@@H](N(C)C)C2)c(/C=C2\C(=O)Nc3cccc(-c4ccc(Cl)cc4)c32)[nH]1 [Example 25, 4-(4-Chloro-phenyl)-3-[3-((R)-3-dimethylamino-pyrrolidine-1-carbonyl)-5-methyl-1H-pyrrol-2-ylmethylene]-1,3-dihydro-indol-2-one]
11 | 0.17 µM | 0.61 µM | Cc1cc(C(=O)N2C[C@@H](C)N[C@@H](C)C2)c(/C=C2\C(=O)Nc3cccc(-c4ccc(Cl)cc4)c32)[nH]1 [Example 27]
12 | 0.041 µM | 0.32 µM | CCN(CC)CCNC(=O)c1c(C)[nH]c(/C=C2\C(=O)Nc3cccc(-c4cccc(Cl)c4)c32)c1C [Example 29, 5-[4-(3-Chloro-phenyl)-2-oxo-1,2-dihydro-indol-3-ylidenemethyl]-2,4-dimethyl-1H-pyrrole-3-carboxylic Acid (2-Diethylamino-ethyl)-amide]
13 | 0.051 µM | 1.77 µM | Cc1cc(C(=O)N2CC[C@H](N(C)C)C2)c(/C=C2\C(=O)Nc3cccc(-c4cccc(Cl)c4)c32)[nH]1 [Example 32, 4-(3-Chloro-phenyl)-3-[3-((S)-3-dimethylamino-pyrrolidine-1-carbonyl)-5-methyl-1H-pyrrol-2-ylmethylene]-1,3-dihydro-indol-2-one]
14 | 1.06 µM | 0.94 µM | Cc1cc(C(=O)NCCn2ccnn2)c(/C=C2\C(=O)Nc3cccc(-c4cccc(Cl)c4)c32)[nH]1 [Example 34, 2-[4-(3-Chloro-phenyl)-2-oxo-1,2-dihydro-indol-3-ylidenemethyl]-5-methyl-1H-pyrrole-3-carboxylic Acid (2-[1,2,3]Triazol-1-yl-ethyl)-amide]
15 | < 0.0091 µM |  | Cc1[nH]c(/C=C2\C(=O)Nc3cccc(-c4ccccc4F)c32)c(C)c1C(=O)N1CCN(C)CC1 [Example 93, 3-[3,5-Dimethyl-4-(4-methyl-piperazine-1-carbonyl)-1H-pyrrol-2-ylmethylene]-4-(2-fluoro-phenyl)-1,3-dihydro-indol-2-one]
16 | 0.17 µM |  | Cc1cc(C(=O)NCCn2ccnn2)c(/C=C2\C(=O)Nc3cccc(-c4ccccc4F)c32)[nH]1 [Example 99, 2-[4-(2-Fluoro-phenyl)-2-oxo-1,2-dihydro-indol-3-ylidenemethyl]-5-methyl-1H-pyrrole-3-carboxylic Acid (2-[1,2,3]Triazol-1-yl-ethyl)-amide]
17 | 0.066 µM |  | Cc1[nH]c(/C=C2\C(=O)Nc3cccc(-c4cccc(C(F)(F)F)c4)c32)c(C)c1C(=O)N1CCN(C)CC1 [Example 104, 3-[3,5-Dimethyl-4-(4-methyl-piperazine-1-carbonyl)-H-pyrrol-2-ylmethylene]-4-(3-trifluoromethyl-phenyl)-1,3-dihydro-indol-2-one]
18 | 0.18 µM |  | Cc1cc(C(=O)NCCN2CCCC2)c(/C=C2\C(=O)Nc3cccc(-c4ccc(F)c(Cl)c4)c32)[nH]1 [Example 119, 2-[4-(3-Chloro-4-fluoro-phenyl)-2-oxo-1,2-dihydro-indol-3-ylidenemethyl]-5-methyl-1H-pyrrole-3-carboxylic Acid (2-Pyrrolidin-1-yl-ethyl)-amide]
19 | 0.075 µM |  | CCN(CC)CCNC(=O)c1c(C)[nH]c(/C=C2\C(=O)Nc3cccc(-c4ccc(OC(F)(F)F)cc4)c32)c1C [Example 140, 2,4-Dimethyl-5-[2-oxo-4-(4-trifluoromethoxy-phenyl)-1,2-dihydro-indol-3-ylidenemethyl]-1H-pyrrole-3-carboxylic Acid (2-Diethylamino-ethyl)-amide]
